Measured values from the NIST ThermoML archive (doi:10.1021/acs.jced.5b00816).

How the values were obtained:
[1] = molar heat capacity at constant pressure; details: 101.33 kPa
[2] = Molar enthalpy of transition or fusion; details: Crystal
[3] = Solid-liquid equilibrium temperature; details: 101 kPa; Crystal; DTA

CNC[C@H](O)[C@@H](O)[C@H](O)[C@H](O)CO [(2R,3R,4R,5S)-6-(methylamino)hexane-1,2,3,4,5-pentaol]
molar heat capacity at constant pressure [J/K/mol], [1]
Details	Crystal	Metastable liquid
290 K	322	–
295 K	327	–
300 K	333	–
305 K	338	–
310 K	343	–
315 K	348	–
320 K	353	–
325 K	358	–
330 K	362	–
335 K	367	–
340 K	372	–
345 K	377	–
350 K	382	–
355 K	387	–
360 K	392	–
365 K	396	–
370 K	401	–
375 K	406	–
380 K	411	662
385 K	–	664
390 K	–	666
395 K	–	668
400 K	–	670
405 K	–	671
410 K	–	672
415 K	–	673
420 K	–	673
425 K	–	674
430 K	–	676
435 K	–	678
440 K	–	678

Details	Molar enthalpy of transition or fusion [kcal/mol]	Solid-liquid equilibrium temperature [K]
[2]	12.3	–
[3]	–	400.9
